This note sets out measurements from US20230126310A1 (priority 2020, published 2023).

In general, inhibition refers to the drop in the measured response relative to a control, in per cent.

Molecules are shown by their SMILES. Counter-ions that a name gives are not always drawn. Like-named read-outs stand apart in the source and are kept apart here. Peptide text beside a SMILES is read from it.

This test relates to SARS-CoV-2. As to the kind of experiment: microbe, parasite or virus in culture. Conditions: Severe acute respiratory syndrome coronavirus 2, Caco-2, 48 h; for inhibition at 10 µM: read-out: % Inh. (% Inhibition of SARS-CoV-2).

Turning to `N#CC(c1ccnc(OCc2ccc(CN3CCOCC3)cc2)n1)c1nc2ccccc2s1` (stereo not drawn) [Bentamapimod], the IC50 is 5.12 µM and the inhibition at 10 µM stood at 78.4%. For the same molecule, the IC50 (read-out: pIC50 (converted)) was 5.13 µM. `O=C1c2cccc3c2[C@H](CCC3)CN1[C@@H]1CN2CCC1CC2` [Palonosetron HCl]: the inhibition at 10 µM stood at 57.4%.

With `COC(=O)C1=C(C)NC(C)=C(C(=O)NCCCN2CCC(c3ccccc3)(c3ccccc3)CC2)C1c1ccc([N+](=O)[O-])cc1` (stereo not drawn) [SNAP-5089], the inhibition at 10 µM was 72.6%. Same read-out and setting: for `COc1cc(N2CCC(N3CCN(C)CC3)CC2)ccc1Nc1ncnc(Nc2ccccc2S(=O)(=O)C(C)C)n1` [ASP3026] the value was 62.2%. `Cc1cc(C)c2c(c1)[C@@H](N(Cc1cc(C(F)(F)F)cc(C(F)(F)F)c1)c1nnn(C)n1)CCCN2C[C@H]1CC[C@H](C(=O)O)CC1` [Evacetrapib (LY2484595), Evacetrapib]: the IC50 was 26.7 µM and the inhibition at 10 µM was 94.9%. The IC50 (read-out: pIC50 (converted)) is 26.9 µM. The like results for `Cc1c(O)cccc1C(=O)N[C@@H](CSc1ccccc1)[C@H](O)CN1C[C@H]2CCCC[C@H]2C[C@H]1C(=O)NC(C)(C)C` [Nelfinavir Mesylate] were, in that order, 2.65 µM, 88.6% and 2.63 µM. In the case of `CN1CCc2cc3c(cc2C1O)OCO3` (stereo not drawn) [HYDRASTININE HYDROCHLORIDE], the inhibition at 10 µM was found to be 56.3%. As to `Nc1c2ccccc2nc2ccccc12` [AMINACRINE], the inhibition at 10 µM was 64.1%. Still for that read-out and setting: in the case of `Cc1nc(Nc2ccc(F)cc2)nc(N2CCc3ccccc3C2C)c1C` (stereo not drawn) [Revaprazan Hydrochloride] it was 90.9%; in that of `O=CC=Cc1ccccc1` [cinnamaldehyde], 62.3%. Still for that read-out and setting: in the case of `O=c1[nH]c2ccccc2n1C1CCN(CCCC(c2ccc(F)cc2)c2ccc(F)cc2)CC1` [PIMOZIDE] it was 94%; in that of `CO[C@H]1C[C@H](O[C@@H]2/C(C)=C/C[C@@H]3C[C@@H](C[C@]4(CC[C@H](C)[C@@H](C5CCCCC5)O4)O3)OC(=O)[C@@H]3C=C(C)/C(=N/O)[C@H]4OC/C(=C\C=C\[C@@H]2C)[C@]43O)O[C@@H](C)[C@@H]1O` [SELAMECTIN], 68.2%. On the same count and under the same terms, in the case of `NC(N)=NCc1cccc(I)c1` [iobenguane] it was 86.9%; in that of `OC1(c2ccc(Cl)c(C(F)(F)F)c2)CCN(CCCC(c2ccc(F)cc2)c2ccc(F)cc2)CC1` [PENFLURIDOL], 85.9%. With `COc1cc(C(=O)NC2CCN(C)CC2)c(F)cc1Nc1ncc2c(n1)N(C1CCCC1)CC(F)(F)C(=O)N2C` [TAK-960], the inhibition at 10 µM worked out at 91.6%. `Oc1c(Cl)cc(Cl)c(Cl)c1Cc1c(O)c(Cl)cc(Cl)c1Cl` [HEXACHLOROPHENE]: the inhibition at 10 µM turned out to be 92.9%. The same measure, in the same setting: for `C[S+]([O-])CCCCN=C=S` (stereo not drawn) [sulforaphane] the value was 94.2%. `CCOc1cc2ncc(C#N)c(Nc3ccc(F)c(Cl)c3)c2cc1NC(=O)/C=C/CN(C)C` [Pelitinib (EKB-569), Pelitinib]: the inhibition at 10 µM was found to be 83.4%. Regarding `CC(C)(O)CC(=O)NCCn1ccc2ncnc(Nc3ccc(Oc4cccc(C(F)(F)F)c4)c(Cl)c3)c21` [TAK-285], the inhibition at 10 µM was 73%.

As for `CC(=O)CC(c1ccc([N+](=O)[O-])cc1)c1c(O)c2ccccc2oc1=O` (stereo not drawn) [Acenocoumarin], the inhibition at 10 µM was 64.2%.

Regarding `C=CC(=O)Nc1cccc(Nc2nc(Nc3ccc(N4CCN(C(C)=O)CC4)cc3OC)ncc2C(F)(F)F)c1` [Rociletinib (CO-1686, AVL-301), Rociletinib], the inhibition at 10 µM was found to be 84.9%. For the molecule `NCCC(=O)N[C@@H](Cc1cnc[nH]1)C(=O)O` [Carnosine], the inhibition at 10 µM amounted to 94.3%. Consider `N#CC(=C(/N)Sc1ccccc1N)/C(C#N)=C(\N)Sc1ccccc1N` [U-0126], for which the inhibition at 10 µM was 79.1%. The same measure, in the same setting: in the case of `c1ccc2c(c1)[I+]c1ccccc1-2` [diphenyleneiodonium] it was 55.5%; in that of `Cc1cc(Nc2ncc(Cl)c(Nc3ccccc3S(=O)(=O)C(C)C)n2)c(OC(C)C)cc1C1CCNCC1` [Ceritinib], 60%; in that of `CNCC(O)c1ccc(OC(=O)C(C)(C)C)c(OC(=O)C(C)(C)C)c1` (stereo not drawn) [dipivefrine], 54%. On the same count and under the same terms, in the case of `COc1cc(C)c2c(Oc3cccc(C(F)(F)F)c3)c(OC)cc(NC(C)CCCN)c2n1` (stereo not drawn) [tafenoquine] it was 90%; in that of `CC(=O)OCC1=C(C(=O)O)N2C(=O)[C@@H](NC(=O)Cc3cccs3)[C@H]2SC1` [Cephalothin], 53.7%; in that of `CC(C)Oc1ccc2c(=O)c(-c3ccccc3)coc2c1` [IPRIFLAVONE], 51.4%. Turning to `CCCC1O[C@@H]2C[C@H]3[C@@H]4CCC5=CC(=O)C=C[C@]5(C)[C@H]4[C@@H](O)C[C@]3(C)[C@]2(C(=O)CO)O1` (stereo partly drawn) [budesonide], the inhibition at 10 µM stood at 74.4%.

For `Cc1ccnc2c1CCCC2C(N)=S` (stereo not drawn) [isotiquimide], the inhibition at 10 µM is 50%. On the same count and under the same terms, in the case of `CCC[C@H](Nc1nc(-c2ccc(NC(=O)NCC)c(OC)c2)ncc1C)c1cccnc1` [CYT997] it was 58.6%; in that of `CCNC(=O)c1noc(-c2cc(C(C)C)c(O)cc2O)c1-c1ccc(CN2CCOCC2)cc1` [Luminespib], 104%; in that of `CC(C)C[C@H](NC(=O)[C@@H]1CCCN1)C(=O)NCC(N)=O` [prolylleucylglycinamide] (H-Pro-Leu-Gly-NH2), 70.6%. On the same count and under the same terms, for `CCCCN(CC)c1nc(C)nc2c1c(C)c(C)n2-c1c(C)cc(C)cc1C` [antalarmin] the value was 59%; for `Clc1ccc(COC(Cn2ccnc2)c2ccc(Cl)cc2Cl)cc1` (stereo not drawn) [ECONAZOLE NITRATE], 87.3%; for `C[C@H]1C[C@H]2[C@@H]3CCC4=CC(=O)C=C[C@]4(C)[C@@]3(F)[C@@H](O)C[C@]2(C)[C@@]1(O)C(=O)CO` [BETAMETHASONE], 50.6%. For the molecule `COc1ccc(C(Cl)=C(c2ccc(OC)cc2)c2ccc(OC)cc2)cc1` [chlorotrianisene], the inhibition at 10 µM worked out at 55.3%. Still for that read-out and setting: for `COc1ccc(/C=C/C(=O)O)cc1` [trans-4-Methoxycinnamic-acid] the value was 53.6%; for `O=C(Nc1ccc(Cl)cc1)Nc1ccc(Cl)c(Cl)c1` [Triclocarban], 97.2%. Same read-out and setting: in the case of `COc1cccc([C@@H](C)NCCCc2ccccc2Cl)c1` [tecalcet] it was 78.1%; in that of `C1CCC(C(CC2CCCCN2)C2CCCCC2)CC1` (stereo not drawn) [PERHEXILINE MALEATE], 55.4%; in that of `CCn1c(=O)c(-c2cc[nH]n2)cc2c(C)nc(N)nc21` [Voxtalisib], 84.3%. As for `Clc1ccc(C(Cn2ccnc2)OCc2c(Cl)cccc2Cl)c(Cl)c1` (stereo not drawn) [Isoconazole nitrate (Travogen), Isoconazole nitrate], the inhibition at 10 µM stood at 75.9%. Consider `COc1cccc2cc(-c3nc([C@H]4CC[C@H](C(=O)O)CC4)n4ncnc(N)c34)[nH]c12` [OSI-027], for which the inhibition at 10 µM was 105%. `C/C=C/C=C/C(=O)O` [sorbic-acid]: the inhibition at 10 µM was 65.5%. Regarding `CN(C)CC/C=C1/c2ccccc2Sc2ccc(Cl)cc21` [CHLORPROTHIXENE HYDROCHLORIDE], the inhibition at 10 µM is 55.6%. The same measure, in the same setting: in the case of `CC(O)COC[C@H]1O[C@@H]2O[C@H]3[C@H](O)[C@@H](O)[C@@H](O[C@H]4[C@H](O)[C@@H](O)[C@@H](O[C@H]5[C@H](O)[C@@H](O)[C@@H](O[C@H]6[C@H](O)[C@@H](O)[C@@H](O[C@H]7[C@H](O)[C@@H](O)[C@@H](O[C@H]8[C@H](O)[C@@H](O)[C@@H](O[C@H]1[C@H](O)[C@H]2O)O[C@@H]8COCC(C)O)O[C@@H]7COCC(C)O)O[C@@H]6COCC(C)O)O[C@@H]5COCC(C)O)O[C@@H]4COCC(C)O)O[C@@H]3COCC(C)O` (stereo partly drawn) [hydroxypropyl-beta-cyclodextrin] it was 56.5%. Still for that read-out and setting: in the case of `O=C(O)CCCCC(=O)O` [adipic-acid] it was 55.9%; in that of `COCC(=O)O[C@]1(CCN(C)CCCc2nc3ccccc3[nH]2)CCc2cc(F)ccc2[C@@H]1C(C)C` [mibefradil], 52.4%; in that of `CC(=O)OCC(=O)[C@@]1(O)CC[C@H]2[C@@H]3CCC4=CC(=O)C=C[C@]4(C)[C@H]3[C@@H](O)C[C@@]21C` [PREDNISOLONE ACETATE], 60%.

For the molecule `COc1cc(CN2CCN(c3ccc(F)cc3)CC2)cc(OC)c1OC` [1-(4-fluorophenyl)-4-(3,4,5-trimethoxybenzyl)piperazine], the inhibition at 10 µM came out at 67.3%. On to `CCOC(=O)Nc1cc2c(c(N)n1)N=C(c1ccccc1)[C@H](C)N2` [mivobulin], for which the inhibition at 10 µM worked out at 65%. As to `COc1cc2nccc(Oc3ccc(NC(=O)C4(C(=O)Nc5ccc(F)cc5)CC4)cc3)c2cc1OC` [cabozantinib], the inhibition at 10 µM is 57.5%. The same measure, in the same setting: in the case of `COc1cc2c(Nc3ccc(Br)cc3F)ncnc2cc1OCC1CCN(C)CC1` [Vandetanib (ZD6474), Vandetanib] it was 51.2%. For `CCCCCCCCCCCCCCCC[N+](C)(C)CCN(Cc1ccc(OC)cc1)c1ncccn1` [thonzonium bromide], the inhibition at 10 µM amounted to 76.4%. Turning to `[H]/N=C(\N/C(=N/[H])NCCCCCCNC(=N)NC(=N)Nc1ccc(Cl)cc1)Nc1ccc(Cl)cc1` [CHLORHEXIDINE DIHYDROCHLORIDE], the inhibition at 10 µM came to 86.4%. Consider `NC(=O)N/N=C/c1ccc([N+](=O)[O-])o1` [NITROFURAZONE], for which the inhibition at 10 µM was 87.3%. For `O=C(NC[C@H](O)CO)c1ccncc1Nc1ccc(I)cc1F` [Pimasertib (AS-703026), Pimasertib], the inhibition at 10 µM was 53.2%.

`N#Cc1cn([C@@H]2O[C@H](CO)[C@@H](O)[C@H]2O)c2ncnc(N)c12` [toyocamycin]: the inhibition at 10 µM came to 68.4%. On the same count and under the same terms, for `Cc1nc(Nc2ncc(C(=O)Nc3c(C)cccc3Cl)s2)cc(N2CCN(CCO)CC2)n1` [Dasatinib] the value was 52.7%; for `O=C(Cn1ccnc1[N+](=O)[O-])NCCO` [etanidazole], 57.3%; for `NCCC(Oc1ccc(C(F)(F)F)cc1)c1ccccc1` (stereo not drawn) [norfluoxetine], 95%.
